# Results published in patent US20100152197A1, “(4-TERT-BUTYLPIPERAZIN-2-YL)(PIPERAZIN-1-YL)METHANONE-N-CARBOXAMIDE DERIVATIVES” (ASTRAZENECA AB, priority 2008, published 2010).
# Target: T1, CCR2 (Homo sapiens, UniProt P41597)
# T1 construct: cell membranes containing 6×10^6cells/ml equivalent; endogenous in cells; host or cells: THP1 cells (membrane fragments)
# T1 sequence (P41597 1-360 isoform P41597-2): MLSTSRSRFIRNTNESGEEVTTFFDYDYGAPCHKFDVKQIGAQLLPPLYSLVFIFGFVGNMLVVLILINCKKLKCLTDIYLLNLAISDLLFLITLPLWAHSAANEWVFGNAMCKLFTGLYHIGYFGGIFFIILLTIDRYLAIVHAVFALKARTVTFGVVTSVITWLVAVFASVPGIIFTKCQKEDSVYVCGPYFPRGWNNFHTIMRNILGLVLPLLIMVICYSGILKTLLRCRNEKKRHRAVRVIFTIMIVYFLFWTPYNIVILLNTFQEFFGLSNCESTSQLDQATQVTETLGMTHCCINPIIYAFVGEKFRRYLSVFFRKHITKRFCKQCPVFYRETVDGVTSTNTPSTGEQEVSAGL
# Assay: hMCP-1 THP1 receptor-binding assay (125I-labeled MCP-1, SPA, THP1 cell membranes)
# Conditions: 250 pM 125I-labeled MCP-1, THP1 cell membranes, room temperature 16 hours; read-out: CCR2 Binding pIC50 (converted)
# Procedure: hMCP-1 THP1 Receptor-Binding Assay
# i) Preparation of Membrane Fragments
# THP1 cells were grown in RPMI (Sigma) supplemented with 10% foetal calf serum, 2 mM glutamine (Gibco), 100 units/ml Penicillin and 100 μg/ml Streptomycin (Invitrogen). Membrane fragments were prepared using cell lysis/differential centrifugation methods as described previously (Siciliano et al., 1990, J. Biol. Chem., 265, 19658). Protein concentration was estimated by BCA protein assay (Pierce, Rockford, Ill.) according to the manufacturer's instructions.
# ^125I-labeled MCP-1 was prepared using Bolton and Hunter conjugation (Bolton et al., 1973, Biochem. J., 133, 529; Amersham International plc).
# Test compounds were dissolved in DMSO and further diluted in assay buffer (50 mM HEPES, 1 mM CaCl2, 5 mM MgCl2, 1 mM EDTA, 0.03% BSA, pH 7.2) to give a range of concentrations starting with a top final concentration of up to 10 μM. […] Incubations contained 250 pM ^125I-labeled MCP-1 (GE Healthcare), 0.5 mg Scintillation proximity assay beads (GE Healthcare RPNQ001) and cell membranes containing 6×10^6cells/ml equivalent. Non-specific binding was determined by the inclusion of 10 μM of a known CCR2b antagonist in the place of test compound. Total binding was determined in the presence of 1% DMSO without compound. Incubations were performed in sealed optiplates and kept at room temperature for 16 hours after which the plates were counted on a Packard TopCount (Packard TopCount™). Dose-response curves were generated using “in-house” data analysis package incorporating Origin software to determine IC50 values. Percent inhibitions were calculated for single concentrations of compound by using the following formula 100−((compound binding minus non-specific binding)/(total binding minus non-specific binding)×100).
row,IC50 [nM],SMILES
1,1.82,"Cc1ccc(NC(=O)N2CCN(C(=O)[C@H]3CN(C(C)(C)C)CCN3)CC2)cc1C(F)(F)F [Example 6, 4-[(2R)-4-tert-butylpiperazine-2-carbonyl]-N-[4-methyl-3-(trifluoromethyl)phenyl]piperazine-1-carboxamide]"
2,7.24,"CC(C)(C)N1CCN[C@@H](C(=O)N2CCN(C(=O)Nc3ccc(C#N)c(C(F)(F)F)c3)CC2)C1 [Example 8, 4-[(2R)-4-tert-butylpiperazine-2-carbonyl]-N-[4-cyano-3-(trifluoromethyl)phenyl]piperazine-1-carboxamide]"
3,3.09,"CC(C)(C)N1CCN[C@@H](C(=O)N2CCN(C(=O)Nc3cccc(C(F)(F)F)c3)CC2)C1 [Example 1, 4-[(2R)-4-tert-butylpiperazine-2-carbonyl]-N[3(trifluoromethyl)phenyl]piperazine-1-carboxamide]"
4,1.26,"Cc1nc(NC(=O)N2CCN(C(=O)[C@H]3CN(C(C)(C)C)CCN3)CC2)sc1Cl [Example 16, 4-[(2R)-4-tert-butylpiperazine-2-carbonyl]-N-(5-chloro-4-methyl-1,3-thiazol-2-yl)piperazine-1-carboxamide]"
5,2,"CC(C)(C)N1CCN[C@@H](C(=O)N2CCN(C(=O)Nc3ccc(F)c(C(F)(F)F)c3)CC2)C1 [Example 5, 4-[(2R)-4-tert-butylpiperazine-2-carbonyl]-N-[4-fluoro-3(trifluoromethyl)phenyl]piperazine-1-carboxamide]"
6,< 0.447,"CC(C)(C)N1CCN[C@@H](C(=O)N2CCN(C(=O)Nc3nc(C(F)(F)F)c(Cl)s3)CC2)C1 [Example 17, 4-[(2R)-4-tert-butylpiperazine-2-carbonyl]-N-[5-chloro-4-(trifluoromethyl)-1,3-thiazol-2-yl]piperazine-1-carboxamide]"
7,8.51,"CC(C)(C)N1CCN[C@@H](C(=O)N2CCN(C(=O)Nc3ccc(F)c(Cl)c3)CC2)C1 [Example 7, 4-[(2R)-4-tert-butylpiperazine-2-carbonyl]-N-(3-chloro-4-fluorophenyl)piperazine-1-carboxamide]"
8,1.82,"CC(C)(C)N1CCN[C@@H](C(=O)N2CCN(C(=O)Nc3cccc(OCc4ccccc4)c3)CC2)C1 [Example 12, 4-[(2R)-4-tert-butylpiperazine-2-carbonyl]-N-(3-phenylmethoxyphenyl)piperazine-1-carboxamide]"
9,< 0.871,"CC(C)(C)N1CCN[C@@H](C(=O)N2CCN(C(=O)Nc3ccc(OC(F)(F)F)c(Cl)c3)CC2)C1 [Example 13, 4-[(2R)-4-tert-butylpiperazine-2-carbonyl]-N-[3-chloro-4-(trifluoromethoxy)phenyl]piperazine-1-carboxamide]"
10,6.76,"CC(C)(C)N1CCN[C@@H](C(=O)N2CCN(C(=O)Nc3cccc(OC(F)(F)C(F)F)c3)CC2)C1 [Example 10, 4-[(2R)-4-tert-butylpiperazine-2-carbonyl]-N-[3-(1,1,2,2-tetrafluoroethoxy)phenyl]piperazine-1-carboxamide]"
11,2.29,"Cc1cc(NC(=O)N2CCN(C(=O)[C@H]3CN(C(C)(C)C)CCN3)CC2)ccc1Cl [Example 11, 4-[(2R)-4-tert-butylpiperazine-2-carbonyl]-N-(4-chloro-3-methylphenyl)piperazine-1-carboxamide]"
12,2.57,"CC(C)(C)N1CCN[C@@H](C(=O)N2CCN(C(=O)Nc3ccc(Cl)c(F)c3)CC2)C1 [Example 9, 4-[(2R)-4-tert-butylpiperazine-2-carbonyl]-N-(4-chloro-3-fluorophenyl)piperazine-1-carboxamide]"
13,6.76,"CC(C)(C)N1CCN[C@@H](C(=O)N2CCN(C(=O)Nc3ccc(Br)cc3)CC2)C1 [Example 4, N-(4-bromophenyl)-4-[(2R)-4-tert-butylpiperazine-2-carbonyl]piperazine-1-carboxamide]"
14,2.75,"Cc1nc(NC(=O)N2CCN(C(=O)[C@H]3CN(C(C)(C)C)CCN3)CC2)sc1Br [Example 14, N-(5-bromo-4-methyl-1,3-thiazol-2-yl)-4-[(2R)-4-tert-butylpiperazine-2-carbonyl]piperazine-1-carboxamide]"
15,2.82,"CC(C)(C)N1CCN[C@@H](C(=O)N2CCN(C(=O)Nc3cccc(SC(F)(F)F)c3)CC2)C1 [Example 3, 4-[(2R)-4-tert-butylpiperazine-2-carbonyl]-N-[3-(trifluoromethylsulfanyl)phenyl]piperazine-1-carboxamide]"
16,2.57,"CC(C)(C)N1CCN[C@@H](C(=O)N2CCN(C(=O)Nc3cccc(Cl)c3)CC2)C1 [Example 2, 4-[(2R)-4-tert-butylpiperazine-2-carbonyl]-N-(3-chlorophenyl)piperazine-1-carboxamide]"
17,< 0.447,"CCc1nc(NC(=O)N2CCN(C(=O)[C@H]3CN(C(C)(C)C)CCN3)CC2)sc1Cl [Example 15, 4-[(2R)-4-tert-butylpiperazine-2-carbonyl]-N-(5-chloro-4-ethyl-1,3-thiazol-2-yl)piperazine-1-carboxamide]"
